Ends that are not written are not given here.
Assays:
Escherichia coli JM109 = assay: Inhibition-zone assay (CL); format: cell-based; conditions: EC JM109, N.A. = no activity at 0.8 nmol peptide each well
How it was run: (§1)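 Bacteria (~2 × 10^6 cells/ml) were seeded in 0.8% soft-agar medium (LB, Nutrient Broth or GYM) and grown at 30 or 37°C. Three peptide doses were placed in separate 2 mm wells, and inhibition zones were measured after overnight incubation. CL was calculated from the slope and intercept of a d^2 versus log n plot.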

Escherichia coli DH5α = assay: Inhibition-zone assay (CL); format: cell-based; conditions: EC DH5α, N.A. = no activity at 0.8 nmol peptide each well
How it was run: as §1

Escherichia coli D. J45b = assay: Inhibition-zone assay (CL); format: cell-based; conditions: EC D. J45b, N.A. = no activity at 0.8 nmol peptide each well
How it was run: as §1

[1] = system: Staphylococcus aureus J708; assay: Inhibition-zone assay (CL); format: cell-based; conditions: SA J708, N.A. = no activity at 0.8 nmol peptide each well
How it was run: as §1

[2] = system: Bacillus cereus CGMCC 1.1846; assay: Inhibition-zone assay (CL); format: cell-based; conditions: BC CGMCC 1.1846, N.A. = no activity at 0.8 nmol peptide each well
How it was run: as §1

[3] = system: Streptomyces griseus NBRC 13350; assay: Inhibition-zone assay (CL); format: cell-based; conditions: SG NBRC 13350, N.A. = no activity at 0.8 nmol peptide each well
How it was run: as §1

Serum stability = format: in vitro ADME; conditions: fresh mouse serum, 37°C, read-out inhibition zone on Micrococcus luteus plates, triplicate
Protocol: To assess serum stability, peptides were dissolved in H2O or fresh mouse serum for the indicated times at 37°C and their residual activity was measured by the inhibition-zone assay (Hultmark, [1998]).

[4] = system: Pseudomonas aeruginosa 374; assay: Inhibition-zone assay (CL); format: cell-based; conditions: PA 374, N.A. = no activity at 0.8 nmol peptide each well
How it was run: as §1

[5] = system: Pseudomonas aeruginosa FRD1; assay: Inhibition-zone assay (CL); format: cell-based; conditions: PA FRD1, N.A. = no activity at 0.8 nmol peptide each well
How it was run: as §1

[6] = system: Serratia marcescens ATCC 14041; assay: Inhibition-zone assay (CL); format: cell-based; conditions: SMAR ATCC 14041, N.A. = no activity at 0.8 nmol peptide each well
How it was run: as §1

[7] = system: Geotrichum candidum CCTCC AY 93038; assay: Inhibition-zone assay (CL); format: cell-based; conditions: GC CCTCC AY 93038, 28°C, N.A. = no activity at 0.8 nmol peptide each well
Candida albicans 4247 = assay: Inhibition-zone assay (CL); format: cell-based; conditions: CA 4247, 28°C, N.A. = no activity at 0.8 nmol peptide each well
Candida albicans JX1009 = assay: Inhibition-zone assay (CL); format: cell-based; conditions: CA JX1009, 28°C, N.A. = no activity at 0.8 nmol peptide each well
Candida albicans SZ56 = assay: Inhibition-zone assay (CL); format: cell-based; conditions: CA SZ56, 28°C, N.A. = no activity at 0.8 nmol peptide each well
Aspergillus nidulans A28 = assay: Inhibition-zone assay (CL); format: cell-based; conditions: ANID A28, 28°C, N.A. = no activity at 0.8 nmol peptide each well
Pichia pastoris X33 = assay: Inhibition-zone assay (CL); format: cell-based; conditions: PP X33, 28°C, N.A. = no activity at 0.8 nmol peptide each well
[8] = system: fresh erythrocytes from the pigeons; assay: Hemolytic assay, bird (pigeon) erythrocytes; format: cell-based, Columba livia domestica; conditions: peptide 25 μM; bird blood cells; 30 min, 37°C
Protocol: Hemolytic activity of peptides against fresh erythrocytes from the ICR mice (Mus musculus), the lizards (Eremias multiocellata) or the pigeons (Columba livia domestica) was assayed according to the standard method (Zhu et al., [2012a]). An aliquot of freshly prepared venom was diluted with 0.9% NaCl to a protein concentration of ~5 mg/mL for use. The percentage of hemolysis is determined as (Apep-Ablank)/(Atot-Ablank) × 100, in which “A” represents absorbance measured at 570 nm. Ablank and Aprep were evaluated in the absence or presence of the venom or peptides. 100% hemolysis (Atot) was obtained in the presence of 1% Triton X-100.

[9] = system: Aspergillus nidulans Rcho15; assay: Inhibition-zone assay (CL); format: cell-based; conditions: ANID Rcho15, 28°C, N.A. = no activity at 0.8 nmol peptide each well
Candida albicans JX1195 = assay: Inhibition-zone assay (CL); format: cell-based; conditions: CA JX1195, 28°C, N.A. = no activity at 0.8 nmol peptide each well

Compound	Lethal concentration (CL) (Escherichia coli D. J45b) [µM]	Lethal concentration (CL) [1] [µM]	Lethal concentration (CL) [2] [µM]	Lethal concentration (CL) [3] [µM]	Lethal concentration (CL) [7] [µM]	Lethal concentration (CL) (Candida albicans 4247) [µM]	Lethal concentration (CL) (Candida albicans JX1009) [µM]	Lethal concentration (CL) (Candida albicans SZ56) [µM]	other results
CC[C@H](C)[C@H](NC(=O)CN)C(=O)NCC(=O)N[C@@H](C)C(=O)N[C@H](C(=O)N[C@@H](CC(C)C)C(=O)N[C@@H](CCCCN)C(=O)N[C@H](C(=O)N[C@@H](CC(C)C)C(=O)N[C@H](C(=O)N[C@H](C(=O)NCC(=O)N[C@@H](CC(C)C)C(=O)N1CCC[C@H]1C(=O)N[C@@H](C)C(=O)N[C@@H](CC(C)C)C(=O)N[C@H](C(=O)N[C@@H](CO)C(=O)N[C@@H](Cc1c[nH]c2ccccc12)C(=O)N[C@H](C(=O)N[C@@H](CCCCN)C(=O)N[C@@H](CCCNC(=N)N)C(=O)N[C@@H](CCCCN)C(=O)N[C@@H](CCCNC(=N)N)C(=O)N[C@@H](CCC(N)=O)C(=O)N[C@@H](CCC(N)=O)C(N)=O)[C@@H](C)CC)[C@@H](C)CC)[C@@H](C)O)[C@@H](C)O)C(C)C)C(C)C [Melittin, reference compound]	24.54	7.80	24.74	28.79					Lethal concentration (CL) (Escherichia coli JM109): 23.53 µM; Lethal concentration (CL) (Escherichia coli DH5α): 18.20 µM; residual activity after incubation in mouse serum (Serum stability; 24 h, 0.72-1.44 nmol each well): only little or no activity remained
FFGHLFKLATKIIPSFFRRKNQ [MAC-22]	6.78								Lethal concentration (CL) [4]: 18.75 µM; Lethal concentration (CL) [5]: 18.75 µM; Lethal concentration (CL) (Pseudomonas solanacearum): 22.08 µM
FFGHLFKLATKIIPSLFQ [MUC-18, reference compound]	22.72	6.86		31.40					
FFGHLFKLATKIIPSLFQRKKE [MUC-22]	7.49								Lethal concentration (CL) [4]: 16.86 µM; Lethal concentration (CL) [5]: 16.86 µM; Lethal concentration (CL) [6]: 58.93 µM; Lethal concentration (CL) (Pseudomonas solanacearum): 21.61 µM
FLFSLIPSAISGLINAFK-NH2 [MeuFSPL-2]		6.21	19.57		24.94	7.02	11.58	14.80	residual activity after incubation in mouse serum (Serum stability; 4 h, 0.72 nmol/well): entirely lost
FLFSLIPSAISGLISAFK-NH2 [MeuFSPL-1]		10.92	15.33	6.81	17.70	15.28	15.55	21.82	Lethal concentration (CL) (Aspergillus nidulans A28): 14.84 µM; Lethal concentration (CL) (Pichia pastoris X33): 8.21 µM
FLFSLIPSAISGLISAFKGRRKRDLN-NH2 [MarMEL]	6.24	4.69	6.69	5.19	6.34	7.04	6.49	8.49	hemolysis [8]: nearly complete hemolysis; Lethal concentration (CL) [9]: 5.65 µM; Lethal concentration (CL) (Aspergillus nidulans A28): 7.14 µM; Lethal concentration (CL) (Escherichia coli JM109): 5.55 µM; Lethal concentration (CL) (Pichia pastoris X33): 3.57 µM; Lethal concentration (CL) (Escherichia coli DH5α): 5.48 µM; Lethal concentration (CL) (Candida albicans JX1195): 5.65 µM
